Data on two compounds can be found in patent publication US20190048054A1, “Mesenchymal Stem Cells Expressing Biomarkers that Predict the Effectiveness of Mesenchymal Stem Cells for Treating Diseases and Disorders” (priority 2014, published 2019).

Data set [1] relates to hMSCs. In words: Cell viability of hMSCs after estradiol treatment (photographs). The format is cell-based, human. The conditions noted are these: estradiol treatment for 4 days (FIG. 2C).
The test system of data set [2] is animal models for human diseases. The conditions noted are these: administration of recombinant TSG-6; cited from earlier work.

As to `C[C@]12CC[C@@H]3c4ccc(O)cc4CC[C@H]3[C@@H]1CC[C@@H]2O` [estradiol], the cell viability result in data set [1] is given as “without affecting cell viability”.

As for “recombinant TSG-6: naturally occurring anti-inflammatory protein of 35 kDa, SEQ ID NO: 1; given as recombinant protein”, in data set [2], the “beneficial effects compared with hMSCs” value was “reproduced most of the beneficial effects of the hMSCs”.
